Publication PMC9606729 (RSC Advances, 2022)
Read-outs that look alike come from different tables or passages of the source.

Experiments:
HeLa cells [1] = experiment: Cellular uptake by flow cytometry; type: cell-based, human; details: 10 μM, 4 h in dark, fluorescence vs cells' auto fluorescence
Protocol: Uptake of the complexes 1–3 in HeLa cells were studied by flow cytometric method reported in literature.[42] HeLa cells were treated with 1–3 (10 μM) and incubated for 4 h in dark. The cells were harvested by trypsinization and a suspension in PBS was prepared. The uptake of the green fluorescent complexes in HeLa cells were evaluated by flow cytometry.

[2] = Partition coefficient n-octanol/water, modified shake-flask method; type: physicochemical; details: average of three concentrations
Protocol: A modified shake-flask method was used to determine the partition coefficients of the complexes 1–6 between n-octanol and water.[41] Briefly, 5 ml solution of a complex in octanol-saturated water was shaken with 5 ml of water-saturated n-octanol in a falcon tube for ∼30 min using a vortex. The biphasic mixture was centrifuged for ∼5 min at 4000 rpm and the layers were separated. The concentration of the complexes 1–6 in each layer was measured by UV-visible spectroscopy. The partition coefficients of 1–6 were determined at three different concentrations and averaged out.

HeLa cells [3] = experiment: Annexin-V/FITC/PI assay by flow cytometry; type: cell-based, human; details: 5 μM
Protocol: The mechanism of light-assisted cell death induced by the complexes was studied by annexin-V/FITC/PI assay using complexes 1 and 3 in 1% DMSO/DMEM.[44] ∼4 × 10^5 HeLa cells seeded in six-well plates were cultured for 24 h. The cells were then incubated with 3 (5 μM) for 4 h in the dark and then exposed to visible light (λ = 400–700 nm, light dose = 10 J cm^−2) in phenol red free media for 1 h. The corresponding dark control experiment was carried out. Cells were incubated for another 19 h and 20 h respectively for the light exposed and unexposed plates in DMEM/10% fetal bovine serum (FBS) buffer in the dark. The medium was discarded, cells were trypsinized and re-suspended in 140 μL Annexin V binding buffer (100 mM HEPES/NaOH, pH 7.4 containing 140 mM NaCl and 2.5 mM CaCl2). Annexin-V/FITC ([…]) and propidium iodide (PI; […]) were added to the cell suspensions, incubated for 5 min and readings were taken using a flow cytometer.

HeLa cells [4] = experiment: DCFDA assay for detection of ROS; type: cell-based, human; details: 5 μM
Protocol: The generation of cellular reactive oxygen species (ROS) was assessed using DCFDA assay.[43] Approximately ∼1 × 10^6 HeLa cells were incubated with complex 3 (5 μM) for 4 h which is followed by photo-irradiation (400–700 nm) for 1 h in PBS. The cells were then harvested by trypsinization and a single cell suspension in PBS was made. After that the cells were treated with DCFDA solution (10 μM, in DMSO) in dark at room temperature for 5 min. The distribution of DCFDA stained HeLa cells was determined by flow cytometry in the FL-1 channel.

HeLa cells [5] = experiment: MTT cell viability assay (photocytotoxicity), HeLa; type: cell-based, human; details: for PI (Phototoxic Index) HeLa: ratio between IC50 in the dark and visible light exposure
Protocol: (§1) The photocytotoxicity of the complexes was assessed using MTT assay based on the ability of mitochondrial dehydrogenases in the viable cells to cleave the tetrazolium rings of MTT and forming dark blue membrane impermeable crystals of formazan that were measured at 570 nm giving an estimate of the number of viable cells.[40] Approximately, 1 × 10^4 cells of HeLa and A549 were plated in a 96-well culture plate in DMEM supplemented with 10% fetal bovine serum and cultured overnight. Different concentrations of the complexes were added to the cells, and incubation was continued for 4 h in dark. After incubation, the medium was replaced with 50 mM phosphate buffer, pH 7.4, containing 150 mM NaCl (PBS) and photo-irradiation was done for 1 h in visible light of 400–700 nm using Luzchem Photoreactor (Model LZC-1, Ontario, Canada; light fluence rate: 2.4 mW cm^−2; light dose = 10 J cm^−2). PBS was replaced with 10% DMEM after irradiation. Incubation was continued for a further period of 19 h in dark for light exposed cells and for 20 h in dark for light unexposed cells followed by addition of 25 μL of 4 mg mL^−1 of MTT to each well and incubated for an additional 3 h. The culture medium was discarded, and a 100 μL volume of DMSO was added to dissolve the formazan crystals. The absorbance at 570 nm was determined using an ELISA microplate reader (BioRad, Hercules, CA, USA). The cytotoxicity of the test compounds was measured as the percentage ratio of the absorbance of the treated cells over the untreated controls. The IC50 values were determined by nonlinear regression analysis (Graphpad Prism, version 7).

A549 cells [6] = experiment: MTT cell viability assay (photocytotoxicity), A549; type: cell-based, human; details: for PI (Phototoxic Index) A549: ratio between IC50 in the dark and visible light exposure
Protocol: as §1

[7] = target: T1, human serum albumin (HSA) (Homo sapiens, UniProt P02768); experiment: Protein binding by tryptophan fluorescence quenching; details: fluorescence lifetime of HSA with 10 and 20 μM complex
T1 construct: purchased Sigma (U.S.A.)
Protocol: The protein binding study was carried out by tryptophan fluorescence quenching experiments using human serum albumin (HSA, 2 μM) in Tris–HCl buffer (pH 7.2). Quenching of the emission intensity of tryptophan residue (Trp 214) of HSA at 320 nm (excitation wavelength at 280 nm) was monitored using complexes 1–6 as quenchers with increasing concentration.[38]I0/I vs. [complex] plots were constructed. Linear fit of the data using the equation I0/I = 1 + K[Q], where I0 and I are the emission intensity of HSA in the absence of quencher and emission intensity of HSA in the presence of the quencher of concentration [Q] gave the binding constant KHSA values using OriginPro 8. […] Average fluorescence lifetime of pure HSA (2 μM) was measured and compared with its fluorescence lifetime in presence of two different concentrations (10 and 20 μM) of complex 3 using a time-resolved fluorimeter.[39]

A549 cells [8] = details: curcumin, cited from earlier work
HeLa cells [9] = details: curcumin, cited from earlier work
[10] = visible light (400–700 nm, 10 J cm^−2)
[11] = 4 h treatment followed by 20 h incubation in dark, read-out: IC50 HeLa Dark
[12] = 4 h treatment in dark, visible light (400–700 nm, 10 J cm^−2) 1 h, then 19 h in dark, read-out: IC50 HeLa Light
[13] = 4 h treatment followed by 20 h incubation in dark, read-out: IC50 A549 Dark
[14] = 4 h treatment in dark, visible light (400–700 nm, 10 J cm^−2) 1 h, then 19 h in dark, read-out: IC50 A549 Light

T1 sequence (P02768 25-609): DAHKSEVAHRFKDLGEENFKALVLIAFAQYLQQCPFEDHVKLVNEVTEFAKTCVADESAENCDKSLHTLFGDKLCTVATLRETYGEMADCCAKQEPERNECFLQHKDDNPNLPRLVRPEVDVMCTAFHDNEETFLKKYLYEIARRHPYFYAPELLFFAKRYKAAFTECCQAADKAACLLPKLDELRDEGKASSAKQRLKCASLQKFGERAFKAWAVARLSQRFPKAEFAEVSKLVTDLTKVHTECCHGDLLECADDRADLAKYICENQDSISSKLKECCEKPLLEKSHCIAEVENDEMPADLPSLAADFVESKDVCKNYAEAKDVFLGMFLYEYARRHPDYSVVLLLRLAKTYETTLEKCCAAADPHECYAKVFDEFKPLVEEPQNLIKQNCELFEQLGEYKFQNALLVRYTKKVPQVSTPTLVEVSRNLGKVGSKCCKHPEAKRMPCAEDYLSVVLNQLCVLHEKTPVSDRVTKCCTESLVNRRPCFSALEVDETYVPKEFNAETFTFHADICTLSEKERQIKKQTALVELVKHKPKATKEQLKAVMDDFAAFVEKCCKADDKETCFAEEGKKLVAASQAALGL

COc1cc(/C=C/C(=O)C=C([O-])/C=C/c2ccc(O)c(OC)c2)ccc1O.[Cu+2].[O-][Cl+3]([O-])([O-])[O-].c1ccc2nc3c4cccnc4c4ncccc4c3nc2c1 [Complex 3, [Cu(Cur)(dppz)(ClO4)]]
uptake in HeLa cells (HeLa cells [1]): highest uptake
log Po/w [2]: 0.945
population of cells in early apoptotic stage (HeLa cells [3]; in dark): ~4%
population of cells in late apoptotic stage (HeLa cells [3]; in dark): ~8%
population of cells in early apoptotic stage (HeLa cells [3]; [10]): ~50%
population of cells in late apoptotic stage (HeLa cells [3]; [10]): ~15%
ROS generation (DCF emission) (HeLa cells [4]; 4 h, photo-irradiation (400–700 nm) 1 h): significant increase in emission by DCF
ROS generation (DCF emission) (HeLa cells [4]; compound treated cells kept in dark): did not show any significant ROS formation
IC50 (HeLa cells [5]; [11]): 58.9 ± 3.7 µM
IC50 (HeLa cells [5]; [12]): 3.7 ± 0.5 µM
PI (Phototoxic Index) HeLa (HeLa cells [5]): 15.9
IC50 (A549 cells [6]; [13]): 64.9 ± 4.3 µM
IC50 (A549 cells [6]; [14]): 4.3 ± 0.4 µM
PI (Phototoxic Index) A549 (A549 cells [6]): 15.1
HSA fluorescence quenching mechanism [7]: static in nature

COc1cc(C=CC(=O)C=C([O-])C=Cc2ccc(O)c(OC)c2)ccc1O.[Cu+2].[O-][Cl+3]([O-])([O-])[O-].c1cnc2c(c1)c1nccnc1c1cccnc12 [Complex 2, [Cu(Cur)(dpq)(ClO4)]]
log Po/w [2]: 0.345
IC50 (HeLa cells [5]; [11]): 61.9 ± 3.9 µM
IC50 (HeLa cells [5]; [12]): 4.7 ± 0.8 µM
PI (Phototoxic Index) HeLa (HeLa cells [5]): 13.2
IC50 (A549 cells [6]; [13]): 65.6 ± 4.4 µM
IC50 (A549 cells [6]; [14]): 5.7 ± 0.7 µM
PI (Phototoxic Index) A549 (A549 cells [6]): 11.5

CC(=O)C=C(C)[O-].[Cu+2].[O-][Cl+3]([O-])([O-])[O-].c1cnc2c(c1)ccc1cccnc12 [Complex 4, [Cu(acac)(phen)(ClO4)]]
IC50 (HeLa cells [5]; [11]): > 100 µM
IC50 (HeLa cells [5]; [12]): 41 ± 3.8 µM
IC50 (A549 cells [6]; [13]): > 100 µM
IC50 (A549 cells [6]; [14]): 48.8 ± 4.2 µM

COc1cc(/C=C/C(=O)C=C([O-])/C=C/c2ccc(O)c(OC)c2)ccc1O.[Cu+2].[O-][Cl+3]([O-])([O-])[O-].c1cnc2c(c1)ccc1cccnc12 [Complex 1, [Cu(Cur)(phen)(ClO4)]]
log Po/w [2]: −0.525
induction of apoptosis (in words) (HeLa cells [3]; visible light (400–700 nm, 10 J cm^−2) vs dark): visible light assisted induction of apoptosis in HeLa cells, however not up to the extent of 3
IC50 (HeLa cells [5]; [11]): 56.4 ± 3.5 µM
IC50 (HeLa cells [5]; [12]): 6.8 ± 0.9 µM
PI (Phototoxic Index) HeLa (HeLa cells [5]): 8.3
IC50 (A549 cells [6]; [13]): 85.3 ± 5.4 µM
IC50 (A549 cells [6]; [14]): 8.6 ± 0.8 µM
PI (Phototoxic Index) A549 (A549 cells [6]): 9.9

COc1cc(/C=C/C(=O)CC(=O)/C=C/c2ccc(O)c(OC)c2)ccc1O [Curcumin, (1E,6E)-1,7-bis(4-hydroxy-3-methoxyphenyl)-1,6-heptadiene-3,5-dione]
IC50 (A549 cells [8]; read-out: IC50 A549 Dark): 61.4 ± 0.4 µM
IC50 (A549 cells [8]; read-out: IC50 A549 Light): 19 ± 0.1 µM
IC50 (HeLa cells [9]; read-out: IC50 HeLa Dark): 85.4 ± 0.6 µM
IC50 (HeLa cells [9]; read-out: IC50 HeLa Light): 8.2 ± 0.2 µM

CC(=O)C=C(C)[O-].[Cu+2].[O-][Cl+3]([O-])([O-])[O-].c1ccc2nc3c4cccnc4c4ncccc4c3nc2c1 [Complex 6]
IC50 (HeLa cells [5]; [11]): > 100 µM
IC50 (HeLa cells [5]; [12]): 36.9 ± 2.8 µM
PI (Phototoxic Index) HeLa (HeLa cells [5]): >2.7
IC50 (A549 cells [6]; [13]): > 100 µM
IC50 (A549 cells [6]; [14]): 39.8 ± 3.3 µM
PI (Phototoxic Index) A549 (A549 cells [6]): >2.5

CC(=O)C=C(C)[O-].[Cu+2].[O-][Cl+3]([O-])([O-])[O-].c1cnc2c(c1)c1nccnc1c1cccnc12 [Complex 5, [Cu(acac)(dpq)(ClO4)]]
log Po/w [2]: −0.180
IC50 (HeLa cells [5]; [11]): > 100 µM
IC50 (HeLa cells [5]; [12]): 46.8 ± 3.9 µM
PI (Phototoxic Index) HeLa (HeLa cells [5]): >2.1
IC50 (A549 cells [6]; [13]): > 100 µM
IC50 (A549 cells [6]; [14]): 45.1 ± 3.5 µM
PI (Phototoxic Index) A549 (A549 cells [6]): >2.2
